Laboratory results taken from patent US10821115B2, “Compounds that inhibit Mcl-1 protein” (priority 2017, dated 2020).
Like-named read-outs stand apart in the source and are kept apart here.

Legend:
[1] = tested on: human multiple myeloma cell line, OPM-2; assay: Cell viability assay (OPM-2 10 FBS), CellTiter-Glo; type: cell-based
Procedure, shortened: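 OPM-2 cells at 3000 cells/well in RPMI 1640 with 10% FBS were exposed to serially diluted compounds for 16 h at 37 °C, 5% CO2.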

[2] = target: recombinant human Mcl-1 (residues 171-327) / Bim interaction (Homo sapiens (Human), UniProt Q07820); assay: biochemical; type: binding; details: read-out: Mcl-1 HTRF IC50
[3] = Homo sapiens, OPM-2, 16 h, read-out: OPM-2 10% FBS IC50 IP, OPM-2 cells, 10% FBS, 16 h incubation
[4] = 0.1 nM Mcl-1(171-327), 0.05 nM biotin-Bim (51-76)
[5] = Homo sapiens, OPM-2, 16 h, read-out: OPM-2 10% FBS IC50 IP, OPM-2 cells, 10% FBS, 16 h, CellTiter-Glo
[6] = TR-FRET, Mcl-1(171-327) / biotin-Bim (51-76)
[7] = read-out: OPM-2 10% FBS IC50 IP, OPM-2 cells, 10% FBS, 16 h incubation
[8] = read-out: OPM-2 10% FBS IC50 IP, OPM-2 cells, 10% FBS, 16 h, CellTiter-Glo

Chain of recombinant human Mcl-1 (residues 171-327) / Bim interaction (Q07820 171-327): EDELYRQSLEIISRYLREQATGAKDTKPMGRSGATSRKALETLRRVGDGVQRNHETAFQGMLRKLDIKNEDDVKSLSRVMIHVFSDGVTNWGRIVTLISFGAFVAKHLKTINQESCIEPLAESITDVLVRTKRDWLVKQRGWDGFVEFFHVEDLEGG

| Compound | IC50 [2, 4] [nM] | IC50 [1, 5] [nM] | IC50 [2, 6] [nM] | other results |
| --- | --- | --- | --- | --- |
| CO[C@@]1(CN2CCN3CCOC[C@H]3C2)/C=C/C[C@H](C)[C@@H](C)S(=O)(=O)NC(=O)c2ccc3c(c2)N(C[C@@H]2CC[C@H]21)C[C@@]1(CCCc2cc(Cl)ccc21)CO3 [Example 57, (1S,3′R,6′R,7′S,8′E,11′S,12′R)-6-chloro-7′-((9aR)-hexahydropyrazino[2,1-c][1,4]oxazin-8(1H)-ylmethyl)-7′-methoxy-11′,12′-dimethyl-3,4-dihydro-2H,15′H-spiro[naphthalene-1,22′-[20]oxa[13]thia[1,14]diazatetracyclo [14.7.2.0~3,6~.0~19,24~]pentacosa[8,16,18,24]tetraen]-15′-one 13′,13′-dioxide] | 0.258 | – | – | IC50 [1, 3]: 90 nM |
| CCOC(=O)COC[C@]1(OCC(=O)OCC)CCCC[C@@H](CC)S(=O)(=O)NC(=O)c2ccc3c(c2)N(C[C@@H]2CC[C@H]21)C[C@@]1(CCCc2cc(Cl)ccc21)CO3 [Example 100042, ethyl (((1S,3′R,6′R,7′S,12′R)-6-chloro-7′-(2-ethoxy-2-oxoethoxy)-12′-ethyl-13′,13′-dioxido-15′-oxo-3,4-dihydro-2H-spiro[naphthalene-1,22′-[20]oxa[13]thia[1,14]diazatetracyclo [14.7.2.0~3,6~.0~19,24~]pentacosa[16,18,24]trien]-7′-yl)methoxy)acetate] | – | 2220 | 4.86 | – |
| (1S,3′R,6′R,7′R,8′E, 11′S,12′R)-6-chloro-12′-(2-hydroxyethyl)-7′-methoxy-11′-methyl-7′-((9aR)-octahydro-2H-pyrido[1,2-a]pyrazin-2-ylmethyl)-3,4-dihydro-2H, 15′H-spiro[naphthalene-1,22′-[20]oxa[13]thia[1,14]diazatetracyclo[14.7.2.0-3,6˜.0˜19,24˜]pentacosa[8,16,18,24]tetraen]-15′-one 13′,13′-dioxide [Example 358] | 0.066 | – | – | IC50 [1, 7]: 144 nM |
| CO[C@@]1(CN2CCN3CCN(S(C)(=O)=O)C[C@@H]3C2)/C=C/C[C@H](C)[C@@H](C)S(=O)(=O)NC(=O)c2ccc3c(c2)N(C[C@@H]2CC[C@H]21)C[C@@]1(CCCc2cc(Cl)ccc21)CO3 (single isomer, unassigned) [Example 245] | 0.12 | – | – | IC50 [1, 7]: 58 nM |
| C=C(C)[C@@H](O)C[C@]1(OC)/C=C/C[C@H](C)[C@@H](C)S(=O)(=O)NC(=O)c2ccc3c(c2)N(C[C@@H]2CC[C@H]21)C[C@@]1(CCCc2cc(Cl)ccc21)CO3 [Example 100471, (1S,3′R,6′R,7′S,8′E,11′S,12′R)-6-chloro-7′-((2S)-2-hydroxy-3-methyl-3-buten-1-yl)-7′-methoxy-11′,12′-dimethyl-3,4-dihydro-2H,15′H-spiro[naphthalene-1,22′-[20]oxa[13]thia[1,14]diazatetracyclo [14.7.2.0~3,6~.0~19,24~]pentacosa[8,16,18,24]tetraen]-15′-one 13′,13′-dioxide] | – | – | – | IC50 [1, 8]: 299 nM; IC50 [2]: 0.281 nM |
| CO[C@]1(C=O)/C=C/C[C@H](C)[C@@H](Cc2ccccc2)S(=O)(=O)NC(=O)c2ccc3c(c2)N(C[C@@H]2CC[C@H]21)C[C@@]1(CCCc2cc(Cl)ccc21)CO3 (single isomer, unassigned) [Example 100575] | – | 2500 | 1.3 | – |
| C[C@@H]1[C@@H](C)CCC[C@](O)(c2nccn2C)[C@@H]2CC[C@H]2CN2C[C@@]3(CCCc4cc(Cl)ccc43)COc3ccc(cc32)C(=O)NS1(=O)=O [Example 100223, (1S,3′R,6′R,7′R,11′S,12′R)-6-chloro-7′-hydroxy-11′,12′-dimethyl-7′-(1-methyl-1H-imidazol-2-yl)-3,4-dihydro-2H,15′H-spiro[naphthalene-1,22′-[20]oxa[13]thia[1,14]diazatetracyclo [14.7.2.0~3,6~.0~19,24~]pentacosa[16,18,24]trien]-15′-one 13′,13′-dioxide] | – | 2150 | 1.41 | – |
| CO[C@@]1(Cc2nc(CN(C)C)c(C)o2)/C=C/C[C@H](C)[C@@H](C)S(=O)(=O)NC(=O)c2ccc3c(c2)N(C[C@@H]2CC[C@H]21)C[C@@]1(CCCc2cc(Cl)ccc21)CO3 [Example 100586, (1S,3′R,6′R,7′S,8′E,11′S,12′R)-6-chloro-7′-((4-((dimethylamino)methyl)-5-methyl-1,3-oxazol-2-yl)methyl)-7′-methoxy-11′,12′-dimethyl-3,4-dihydro-2H,15′H-spiro[naphthalene-1,22′-[20]oxa[13]thia[1,14]diazatetracyclo [14.7.2.0~3,6~.0~19,24~]pentacosa[8,16,18,24]tetraen]-15′-one 13′,13′-dioxide] | – | 453 | 0.074 | – |
| CO[C@@]1(CN2CCN(c3cnccn3)CC2)/C=C/C[C@H](C)[C@@H](C)S(=O)(=O)NC(=O)c2ccc3c(c2)N(C[C@@H]2CC[C@H]21)C[C@@]1(CCCc2cc(Cl)ccc21)CO3 [Example 257, (1S,3′R,6′R,7′S,8′E,11′S,12′R)-6-chloro-7′-methoxy-11′,12′-dimethyl-7′-((4-(2-pyrazinyl)-1-piperazinyl)methyl)-3,4-dihydro-2H,15′H-spiro[naphthalene-1,22′-[20]oxa[13]thia[1,14]diazatetracyclo [14.7.2.0~3,6~.0~19,24~]pentacosa[8,16,18,24]tetraen]-15′-one 13′,13′-dioxide] | 0.403 | – | – | IC50 [1, 3]: 981 nM |
| C[C@@H]1[C@@H](C)C/C=C/[C@@](O)(C#CCCN2CCOCC2)[C@@H]2CC[C@H]2CN2C[C@@]3(CCCc4cc(Cl)ccc43)COc3ccc(cc32)C(=O)NS1(=O)=O (single isomer, unassigned) [Example 100017] | – | – | 0.039 | IC50 [1, 8]: 40 nM |
| COCCOCCN1CCN(C[C@]2(OC)/C=C/C[C@H](C)[C@@H](C)S(=O)(=O)NC(=O)c3ccc4c(c3)N(C[C@@H]3CC[C@H]32)C[C@@]2(CCCc3cc(Cl)ccc32)CO4)CC1 [Example 332, (1S,3′R,6′R,7′S,8′E,11′S,12′R)-6-chloro-7′-methoxy-7′-((4-(2-(2-methoxyethoxy)ethyl)-1-piperazinyl)methyl)-11′,12′-dimethyl-3,4-dihydro-2H,15′H-spiro[naphthalene-1,22′-[20]oxa[13]thia[1,14]diazatetracyclo [14.7.2.0~3,6~.0~19,24~]pentacosa[8,16,18,24]tetraen]-15′-one 13′,13′-dioxide] | 0.096 | – | – | IC50 [1, 3]: 89 nM |
| C[C@@H]1[C@@H](C)CCC[C@@]2(COCCN2)[C@@H]2CC[C@H]2CN2C[C@@]3(CCCc4cc(Cl)ccc43)COc3ccc(cc32)C(=O)NS1(=O)=O [Example 100269, (1S,3′R,6′R,7′S,11′S,12′R)-6-chloro-11′,12′-dimethyl-3,4-dihydro-2H,15′H-dispiro[naphthalene-1,22′-[20]oxa[13]thia[1,14]diazatetracyclo [14.7.2.0~3,6~.0~19,24~]pentacosa[16,18,24]triene-7′,3″-[1,4]oxazinan]-15′-one 13′,13′-dioxide] | – | 1230 | 0.908 | – |
| C[C@H](C(=O)N(C)C)[C@]1(O)/C=C/C[C@H](C)[C@@H](C)S(=O)(=O)NC(=O)c2ccc3c(c2)N(C[C@@H]2CC[C@H]21)C[C@@]1(CCCc2cc(Cl)ccc21)CO3 [Example 100125, (2S)-2-((1S,3′R,6′R,7′S,8′E,11′S,12′R)-6-chloro-7′-hydroxy-11′,12′-dimethyl-13′,13′-dioxido-15′-oxo-3,4-dihydro-2H-spiro[naphthalene-1,22′-[20]oxa[13]thia[1,14]diazatetracyclo [14.7.2.0~3,6~.0~19,24~]pentacosa[8,16,18,24]tetraen]-7′-yl)-N,N-dimethylpropanamide] | – | 555 | 0.43 | – |
| C[C@@H]1[C@@H](C)CCC[C@](O)(c2ncccn2)[C@@H]2CC[C@H]2CN2C[C@@]3(CCCc4cc(Cl)ccc43)COc3ccc(cc32)C(=O)NS1(=O)=O (stereo in doubt) [Example 100270] | – | 3720 | – | IC50 [2]: 0.776 nM |
| CO[C@@]1(CC(=O)c2ccccc2)/C=C/C[C@H](C)[C@@H](C)S(=O)(=O)NC(=O)c2ccc3c(c2)N(C[C@@H]2CC[C@H]21)C[C@@]1(CCCc2cc(Cl)ccc21)CO3 [Example 100458, (1S,3′R,6′R,7′S,8′E,11′S,12′R)-6-chloro-7′-methoxy-11′,12′-dimethyl-7′-(2-oxo-2-phenylethyl)-3,4-dihydro-2H,15′H-spiro[naphthalene-1,22′-[20]oxa[13]thia[1,14]diazatetracyclo [14.7.2.0~3,6~.0~19,24~]pentacosa[8,16,18,24]tetraen]-15′-one 13′,13′-dioxide] | – | 418 | 0.21 | – |
| CO[C@@]1(C#CCCN2CCOC[C@@H]2C)/C=C/C[C@H](C)[C@@H](C)S(=O)(=O)NC(=O)c2ccc3c(c2)N(C[C@@H]2CC[C@H]21)C[C@@]1(CCCc2cc(Cl)ccc21)CO3 [Example 100506, (1S,3′R,6′R,7′S,8′E,11′S,12′R)-6-chloro-7′-methoxy-11′,12′-dimethyl-7′-(4-((3S)-3-methyl-4-morpholinyl)-1-butyn-1-yl)-3,4-dihydro-2H,15′H-spiro[naphthalene-1,22′-[20]oxa[13]thia[1,14]diazatetracyclo [14.7.2.0~3,6~.0~19,24~]pentacosa[8,16,18,24]tetraen]-15′-one 13′,13′-dioxide] | – | 1270 | 0.497 | – |
